Results published in US7252835B2, “Agent for preventing and/or treating sinusitis” (Ono Pharmaceutical Co., Ltd., priority 1998, dated 2007).
Like-named read-outs stand apart in the source and are kept apart here.

How the values were obtained:
[1] = tested on: intractable sinusitis patients; assay: Effect of pranlukast hydrate on intractable sinusitis (clinical, oral administration); type: in vivo, human; settings: 450 mg/day oral
Procedure: Effect of Pranlukast Hydrate on Intractable Sinusitis
Pranlukast hydrate was orally administered to intractable sinusitis patients (34 persons, average age 54.4 years) at a daily dose of 450 mg (112.5 mg/capsule, 2 capsules per 1 time, twice a day (after every breakfast and supper), every day administration). On the 2 weeks, 4 weeks, 6 weeks and 8 weeks after the administration, 1) improving degree of the nasal mucosa swelling, 2) improving degree of the properties of nasal flow, 3) improving degree of the amount of nasal flow, 4) improving degree of the postnasal discharge, 5) improving degree of the nasal obstruction, 6) improving degree of the nasal flow (frequency of blowing nose) and 7) improving degree of the X-ray shadow of each patient were judged (however, parameters in respective weeks are not constant).

rats = settings: both, rat, in vivo
Procedure: (§1) It was confirmed that the compound of the formula (I) or a salt and/or hydrate thereof has sufficiently low toxicity and is sufficiently safe for using it as a medicament. For example, as the acute toxicity of pranlukast hydrate, its minimum lethal dose was 2,000 mg/kg or more (oral or subcutaneous administration), or 30 mg/kg or more (intravenous injection) in mice and rats (both males and females).

mice = settings: both, mouse, in vivo
Procedure: as §1

[2] = tested on: Normal human paranasal sinus mucosa; assay: Inhibitory effect on the reduction of ciliary movement in paranasal sinus mucosa induced by LTs; type: cell-based; settings: pranlukast hydrate 1 μM, FIG. 1
Text: Inhibitory Effect of Pranlukast Hydrate on the Reduction of Ciliary Movement in Paranasal Sinus Mucosa Induced by LTs
1) Culturing of Paranasal Sinus Mucosa
Normal human paranasal sinus mucosa obtained at the time of surgical operation of facial trauma or the like was used on the agreement of the patient. The collected paranasal sinus mucosa was thoroughly washed with a culture medium RPMI 1640 (Gibco Life Technologies), cut into 4 mm×4 mm species and then subjected to tissue culture in a culturing chamber of 35 mm×10 mm using RPMI 1640 containing 10% FCS (fetal calf serum). In order to remove mucus and cellular debris, the culture medium was exchanged every other day.
2) Preparation of Test Solutions […]
When a test solution was added to the mucosal tissue, culture medium in the chamber was removed and mucosal tissue was washed with RPMI 1640 and then the test solution (1 ml) was injected. As a control, the ciliary activity was measured in case of injecting only RPMI 1640 into the chamber. By defining the ciliary activity measured just before injection of each test solution (0 minute) as the reference value (100), the ciliary activity measured after injection of each test solution was expressed as percentage (%) of the reference value. […]

## O=C(Nc1cccc2c(=O)cc(-c3nnn[nH]3)oc12)c1ccc(OCCCCc2ccccc2)cc1 [pranlukast hydrate, 4-oxo-8-[4-(4-phenylbutoxy)benzoylamino]-2-(tetrazol-5-yl)4H-1-benzopyran·½ hydrate]
[1]; on the 2nd week
  Effective ratio, improving degree of the amount of nasal flow: 52%
  Effective ratio, improving degree of the nasal flow (frequency of blowing nose): 34%
  Effective ratio, improving degree of the nasal mucosa swelling: 32%
  Effective ratio, improving degree of the nasal obstruction: 19%
  Effective ratio, improving degree of the postnasal discharge: 39%
  Effective ratio, improving degree of the properties of nasal flow: 33%
[1]; on the 4th week
  Effective ratio, improving degree of the amount of nasal flow: 55%
  Effective ratio, improving degree of the nasal flow (frequency of blowing nose): 52%
  Effective ratio, improving degree of the nasal mucosa swelling: 29%
  Effective ratio, improving degree of the nasal obstruction: 21%
  Effective ratio, improving degree of the postnasal discharge: 38%
  Effective ratio, improving degree of the properties of nasal flow: 48%
[1]; on the 6th week
  Effective ratio, improving degree of the amount of nasal flow: 68%
  Effective ratio, improving degree of the nasal flow (frequency of blowing nose): 65%
  Effective ratio, improving degree of the nasal mucosa swelling: 43%
  Effective ratio, improving degree of the nasal obstruction: 35%
  Effective ratio, improving degree of the postnasal discharge: 39%
  Effective ratio, improving degree of the properties of nasal flow: 52%
[1]; on the 8th week
  Effective ratio, improving degree of the X-ray shadow: 83%
  Effective ratio, improving degree of the amount of nasal flow: 65%
  Effective ratio, improving degree of the nasal flow (frequency of blowing nose): 60%
  Effective ratio, improving degree of the nasal mucosa swelling: 40%
  Effective ratio, improving degree of the nasal obstruction: 29%
  Effective ratio, improving degree of the postnasal discharge: 62%
  Effective ratio, improving degree of the properties of nasal flow: 53%
[1]; summary of Tables 1 to 7
  overall clinical effect on subjective symptoms and objective findings of intractable sinusitis: has clinical effects on sinusitis
rats; iv
  minimum lethal dose: ≥ 30 mg/kg
rats; po
  minimum lethal dose: ≥ 2,000 mg/kg
rats; sc
  minimum lethal dose: ≥ 2,000 mg/kg
mice; iv
  minimum lethal dose: ≥ 30 mg/kg
mice; po
  minimum lethal dose: ≥ 2,000 mg/kg
mice; sc
  minimum lethal dose: ≥ 2,000 mg/kg
[2]; LTC4 0.1 μM, ciliary activity after 6 hours
  inhibition of reduction of paranasal sinus mucosa ciliary activity induced by LTC4: has the activity to inhibit reduction of paranasal sinus mucosa ciliary activity
[2]; LTD4 0.1 μM, ciliary activity after 4 hours
  inhibition of reduction of paranasal sinus mucosa ciliary activity induced by LTD4: has the activity to inhibit reduction of paranasal sinus mucosa ciliary activity
